Reference: patent US20080200392A1, “Methods for Treating Parkinson's Disease” (priority 2005, published 2008)
No end group written: not given here.

Experiments:
FcγIIb = assay: Reverse ELISA: inhibition of PAP immune complex binding to FcγIIb coated plates; conditions: PAP pre-incubated 1 h with peptide, 1 h on FcγIIb coated plates; lower = more inhibition; positive control 1.394
Description: (§1) For this reason, a “reverse ELISA” technique was used to assess binding of the Fc region to ligands that bind to immune complexed IgG Fc. In a reverse ELISA, the enzyme (e.g., HRP) is not covalently conjugated to the Fc portion of the secondary antibody. Rather, a preformed immune complex of peroxidase-rabbit (or mouse) anti-peroxidase IgG (“PAP” complex) is used. […] In these experiments, an Fc CH2-CH3 cleft binding ligand (e.g., purified human C1q) was bound to microwell plates. In the absence of competitor, PAP complexes bound to the immobilized ligand and the reaction between HRP and its substrate produced a signal. This signal was reduced by polypeptides and compounds provided herein that inhibited PAP binding to the immobilized ligand.
(§2) Once the reverse ELISA protocol was established using the C1q assay, the assay was redesigned using FcγIIa, FcγIIb, and FcγIII in place of C1q. Highly purified FcγIIa, FcγIIb and FcγIII were immunoabsorbed onto plastic microwells. After optimizing the FcγR reverse ELISA system, simple competitive inhibition experiments using polypeptides provided herein were conducted to investigate their ability to inhibit binding of immune complexes to purified FcγR.
(§3) Falcon microtiter plates were coated with 1:10 dilutions of highly purified FcγIIa, FcγIIb and FcγIII and incubated for 24 hours. The plates were washed and then blocked with 5×BSA blocking solution (Alpha Diagnostic International, San Antonio, Tex.) for 24 hours. PAP immune complexes were formed as described above. PAP (100 μl) were pre-incubated with 100 μl of peptide for one hour. PAP/peptide mixtures were added to the FcγR coated plates and incubated for one hour. After washing, plates were incubated with ABTS substrate for 15 minutes and read at 405 nm.

FcγIIa = assay: Reverse ELISA: inhibition of PAP immune complex binding to FcγIIa coated plates; conditions: PAP pre-incubated 1 h with peptide, 1 h on FcγIIa coated plates; lower = more inhibition; positive control 1.599
Description: as §1, §2, §3

FcγIII = assay: Reverse ELISA: inhibition of PAP immune complex binding to FcγIII coated plates; conditions: PAP pre-incubated 1 h with peptide, 1 h on FcγIII coated plates; lower = more inhibition; positive control 1.588
Description: as §1, §2, §3

human C1q = assay: Reverse ELISA: inhibition of PAP immune complex binding to C1q coated plates; conditions: for OD 405 nm: PAP pre-incubated 1 h with peptide or C1q, 30 min on C1q coated plates, lower OD = more inhibition, positive control 2.355; for inhibition of C1q binding, ranking in words: among the peptides of Table 1
Description: as §1
PAP complexes were formed mixing 2 μl of rabbit anti-peroxidase (Sigma Chemicals, St. Louis, Mo.) with 50 μl of peroxidase (Sigma-Aldrich, St. Louis, Mo.) in 1 ml distilled water. PAP (100 μl) were pre-incubated with 100 μl of peptide for one hour, 100 μl were pre-incubated with 100 μl of peptide or human C1q (Quidel Corp., San Diego, Calif.) for one hour. The C1q/PAP and peptide/PAP mixtures (100 μl) were incubated with C1q coated plates for 30 minutes. After washing, plates were incubated with ATBS (Quidel Corp.) for 15 minutes and read at 405 nm.

IgG Fc = IgG Fc (Homo sapiens, UniProt P01857); assay: Alanine substitution effect on binding of SEQ ID NO:16 to IgG Fc; conditions: alanine substitution of SEQ ID NO:16 Val-13 or Trp-14
Description: The indole ring of Trp-14 in SEQ ID NO:16 has a hydrophobic interaction with IgG Fc His-435. SEQ ID NO:16 also has hydrophobic packing with IgG Fc Met-252, Ile-253, Ser-254, His-435, and Tyr-436. Alanine substitution of IgG Fc Asn-434, His-435, or Tyr-436 disrupts binding (ΔΔG≧1.5 kcal/mol). Similarly, alanine substitution of SEQ ID NO:16 Val-13 or Trp-14 results in disruption of binding (ΔΔG≧2.0 kcal/mol).

FcR = assay: FcγR reverse ELISA, overall statement on FcR binding to PAP; conditions: among the peptides of Table 2
Procedure: as §2, §3

human wt α-synuclein = assay: Reverse ELISA: inhibition of immune complexed IgG (PAP) binding to wt α-synuclein; conditions: for Wt α-synuclein (read at 405 nm): PAP pre-incubated 1 h with peptide
Procedure: PAP complexes were formed mixing 2 μl of rabbit anti-peroxidase (Sigma) with 50 μl of peroxidase (Sigma) in 1 ml distilled water. PAP (100 μl) were pre-incubated with 100 μl of peptide for one hour. Control PAP (200 μl) also was incubated for one hour. 100 μl of either PAP or PAP/peptide was added to Falcon microtiter plates that had been coated for 24 or 48 hours with 167 μg/ml human wt α-synuclein (Sigma-Aldrich), and the plates were incubated for 60 minutes. After washing, plates were incubated with ATBS for 30 minutes and then read at 405 nm.

[1] = biological target: human wt α-synuclein (Sigma-Aldrich) (human) (UniProt P37840); assay: reverse ELISA: PAP without competitor on α-synuclein-coated plate (taken as the 24 h coating)
highly purified FcγIIb = assay: reverse ELISA: PAP without competitor on FcγIIb-coated plate
highly purified FcγIII = assay: reverse ELISA: PAP without competitor on FcγIII-coated plate
highly purified FcγIIa = assay: reverse ELISA: PAP without competitor on FcγIIa-coated plate
[2] = biological target: preformed immune complex of peroxidase-rabbit anti-peroxidase IgG (PAP complex) (rabbit; horseradish) (UniProt P00433); assay: reverse ELISA competition: PAP pre-incubated with peptide, then on FcγIII-coated plate (competitor: immobilized FcγIII)
[3] = biological target: preformed immune complex of peroxidase-rabbit anti-peroxidase IgG (PAP complex) (rabbit; horseradish) (UniProt P00433); assay: reverse ELISA competition: PAP pre-incubated with peptide, then on FcγIIa-coated plate (competitor: immobilized FcγIIa)
[4] = biological target: preformed immune complex of peroxidase-rabbit anti-peroxidase IgG (PAP complex) (rabbit; horseradish) (UniProt P00433); assay: reverse ELISA competition: PAP pre-incubated with peptide, then on C1q-coated plate; signal is PAP bound to C1q (competitor: immobilized human C1q)
[5] = biological target: preformed immune complex of peroxidase-rabbit anti-peroxidase IgG (PAP complex) (rabbit; horseradish) (UniProt P00433); assay: reverse ELISA competition: PAP pre-incubated with peptide, then on FcγIIb-coated plate (competitor: immobilized FcγIIb)
[6] = biological target: preformed immune complex of peroxidase-rabbit anti-peroxidase IgG (PAP complex) (rabbit; horseradish) (UniProt P00433); assay: reverse ELISA competition: PAP pre-incubated with peptide, then on plate coated 24 h with human wt α-synuclein (competitor: immobilized α-synuclein)
[7] = biological target: preformed immune complex of peroxidase-rabbit anti-peroxidase IgG (PAP complex) (rabbit; horseradish) (UniProt P00433); assay: reverse ELISA competition: PAP pre-incubated with peptide, then on plate coated 48 h with human wt α-synuclein (competitor: immobilized α-synuclein)
[8] = plates coated 24 h with 167 μg/ml α-synuclein, positive control 1.433
[9] = plates coated 48 h with 167 μg/ml α-synuclein, positive control […]

Sequence of preformed immune complex of peroxidase-rabbit anti-peroxidase IgG (PAP complex) (P00433 31-338, one chain of several): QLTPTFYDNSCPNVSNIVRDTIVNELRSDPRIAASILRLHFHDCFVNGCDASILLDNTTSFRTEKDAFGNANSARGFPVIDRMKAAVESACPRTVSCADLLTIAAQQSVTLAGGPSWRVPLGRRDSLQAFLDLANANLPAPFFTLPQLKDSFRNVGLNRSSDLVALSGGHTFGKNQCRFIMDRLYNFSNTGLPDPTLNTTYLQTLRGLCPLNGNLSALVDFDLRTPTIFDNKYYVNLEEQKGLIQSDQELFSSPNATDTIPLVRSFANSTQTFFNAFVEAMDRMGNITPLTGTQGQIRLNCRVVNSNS
Sequence of preformed immune complex of peroxidase-rabbit anti-peroxidase IgG (PAP complex) (rabbit; horseradish) (P00433 31-338, one chain of several): as above
Sequence of highly purified FcγIIa (P12318 34-317): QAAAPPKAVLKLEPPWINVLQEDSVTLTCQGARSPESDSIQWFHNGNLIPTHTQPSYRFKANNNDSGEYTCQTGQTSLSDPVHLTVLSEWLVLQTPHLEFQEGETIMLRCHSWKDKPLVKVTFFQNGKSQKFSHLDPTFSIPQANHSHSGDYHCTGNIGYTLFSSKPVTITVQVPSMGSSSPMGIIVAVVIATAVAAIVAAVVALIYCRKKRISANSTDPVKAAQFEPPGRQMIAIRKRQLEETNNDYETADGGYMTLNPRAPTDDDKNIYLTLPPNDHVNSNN

OD 405 nm [2] [OD 405 nm]	OD 405 nm [3] [OD 405 nm]	OD 405 nm [4] [OD 405 nm]	OD 405 nm [5] [OD 405 nm]	Molecule	FcγIIb (read at 405 nm) (FcγIIb)	FcγIIa (read at 405 nm) (FcγIIa)	FcγIII (read at 405 nm) (FcγIII)	OD 405 nm (human C1q)	other results
–	–	–	–	DCAFHLGELVWCT	0.510	0.660	0.810	0.859	–
–	–	–	–	APPCAFHLGELVWCT (not fully specified; cysteine pairing not given here)	0.380	0.605	0.880	0.983	–
–	–	–	–	APPDCAWHLGELVWCT	0.496	0.509	0.670	0.389	ΔΔG, disruption of binding (IgG Fc): ≥ 2.0 kcal/mol; inhibition of FcR binding to PAP, ranking in words (FcR): greatest inhibition of FcR binding to PAP; inhibition of α-synuclein binding to PAP, ranking in words (human wt α-synuclein; among the peptides of Table 3): greatest inhibition of α-synuclein binding to PAP; Wt α-synuclein (read at 405 nm) (human wt α-synuclein; [8]): 0.088; Wt α-synuclein (read at 405 nm) (human wt α-synuclein; [9]): 0.136; inhibition of C1q binding, ranking in words (human C1q): greatest inhibition of C1q binding, almost equaling C1q itself
–	–	–	–	APPCAWHLGELVWCT	0.562	0.658	0.530	1.148	–
–	–	–	–	DCAWHLGELVWCT	0.532	0.561	0.741	1.100	Wt α-synuclein (read at 405 nm) (human wt α-synuclein; [8]): 0.111; Wt α-synuclein (read at 405 nm) (human wt α-synuclein; [9]): 0.152
–	–	–	–	APPCARHLGELVWCT	0.768	0.956	0.709	0.567	inhibition of C1q binding, ranking in words (human C1q): next best result
–	–	–	–	preformed immune complex of peroxidase-rabbit anti-peroxidase IgG (PAP complex) (from UniProt P00433 31-338) (antibody)	–	–	–	–	OD 405 nm [1]: 1.43 OD 405 nm; OD 405 nm (highly purified FcγIIb): 1.39 OD 405 nm; OD 405 nm (highly purified FcγIII): 1.59 OD 405 nm; OD 405 nm (highly purified FcγIIa): 1.6 OD 405 nm
0.81	0.66	0.859	0.51	DCAFHLGELVWCT [… (SEQ ID NO:3)]	–	–	–	–	–
0.53	0.658	1.15	0.562	APPCAWHLGELVWCT (not fully specified; cysteine pairing not given here) [… (SEQ ID NO:13)]	–	–	–	–	–
0.709	0.956	0.567	0.768	APPCARHLGELVWCT (not fully specified; cysteine pairing not given here) [… (SEQ ID NO:14)]	–	–	–	–	–
0.67	0.509	0.389	0.496	APPDCAWHLGELVWCT [… (SEQ ID NO:16)]	–	–	–	–	OD 405 nm [6]: 0.088 OD 405 nm; OD 405 nm [7]: 0.136 OD 405 nm
0.88	0.605	0.983	0.38	APPCAFHLGELVWCT (not fully specified; cysteine pairing not given here) [… (SEQ ID NO:15)]	–	–	–	–	–
